Test results: publication PMC5520492, “Inhibition of DNA2 nuclease as a therapeutic strategy targeting replication stress in cancer cells” (Oncogenesis, 2017)

What was measured:
U2OS SSA reporter cells = assay: Single strand annealing (SSA) GFP reporter assay; format: cell-based, human; conditions: 24-h treatment
Source text: The DR-green fluorescent protein, pCAGGS and pCBASce plasmids were kindly provided by Dr Maria Jasin (Memorial Sloan-Kettering Cancer Center, New York, NY, USA). U2OS cells containing a single copy of the HR repair reporter substrate DR-green fluorescent protein were generated as previously described.[48] Single stand annealing reporter cells were kindly provided by Dr Jeremy Stark (Beckman Research Institute of the City of Hope, Duarte, CA, USA).[49] Details in Supplementary Materials and Methods.
Figure S6. NSC-105808 reduces DSB repair by SSA. Cells were transfected with EGFP or I-SceI plasmids for 24 hrs and then cultured for an additional 48 hr before analysis by flow cytometry (top). Treatment with NSC-105808 was for 24 hrs prior to flow cytometry. Bar graph showing SSA efficiency in cells treated with NSC-105808 as compared to control cells treated with DMSO. The average data from three independent experiments are shown, with the error bars representing standard deviation (n=3, bottom).
The GFP expressing plasmid (pEGFP-C1) was used for transfection efficiency control. Cells were transfected with the pCBASce plasmid. […] Efficiency of HR and SSA was calculated by normalizing I-SceI-induced GFP expression with EGFP transfection-induced GFP expression. […]

EXO1 = molecular target: T1, EXO1 (Homo sapiens, UniProt Q9UQ84); assay: EXO1 nuclease assay (2 kb dsDNA degradation); format: biochemical; conditions: 10 µM; EXO1 5 nM
T1 construct: made in house
T1 sequence (Q9UQ84 1-846): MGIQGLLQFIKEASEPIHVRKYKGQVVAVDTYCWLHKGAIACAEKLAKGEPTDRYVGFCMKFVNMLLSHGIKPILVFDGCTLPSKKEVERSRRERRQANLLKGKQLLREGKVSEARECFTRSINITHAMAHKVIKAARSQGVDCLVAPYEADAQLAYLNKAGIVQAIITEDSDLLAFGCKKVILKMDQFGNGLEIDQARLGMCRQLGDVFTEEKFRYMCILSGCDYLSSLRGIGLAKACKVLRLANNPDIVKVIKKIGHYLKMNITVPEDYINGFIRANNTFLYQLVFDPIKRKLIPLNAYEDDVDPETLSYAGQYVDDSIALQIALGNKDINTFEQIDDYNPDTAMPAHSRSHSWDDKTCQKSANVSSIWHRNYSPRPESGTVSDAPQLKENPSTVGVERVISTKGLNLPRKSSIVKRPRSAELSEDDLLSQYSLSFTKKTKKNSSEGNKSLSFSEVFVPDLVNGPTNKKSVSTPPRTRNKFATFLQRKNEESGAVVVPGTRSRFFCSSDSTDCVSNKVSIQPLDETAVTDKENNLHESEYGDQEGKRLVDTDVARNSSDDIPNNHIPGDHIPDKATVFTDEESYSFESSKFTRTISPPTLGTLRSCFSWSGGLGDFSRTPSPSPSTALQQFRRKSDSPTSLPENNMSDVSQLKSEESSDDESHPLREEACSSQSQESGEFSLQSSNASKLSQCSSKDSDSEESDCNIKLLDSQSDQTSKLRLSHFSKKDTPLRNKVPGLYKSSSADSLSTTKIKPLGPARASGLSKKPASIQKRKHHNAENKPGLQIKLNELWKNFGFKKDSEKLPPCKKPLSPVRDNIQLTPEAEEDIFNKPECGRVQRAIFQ
Experimental: Nuclease assays were performed in buffer R (20 mM Na-HEPES pH 7.5, 1 mM ATP, 0.1 mM DTT, 100 μg/ml bovine serum albumin, 0.05% Triton X-100, 2 mM MgCl2, 100 mM KCl) and contained 0.5 nM ends (2-kb substrate) or 5 nM ends (the ssDNA oligonucleotide PSOL6929) of DNA. Reactions containing Bloom syndrome also included an ATP regenerating system consisting of 10 mM creatine phosphate and 50 μg/ml creatine kinase. In control reactions, DMSO was used in place of the inhibitor. Reactions with DNA2 alone were incubated at 30 °C, and those with DNA2-Bloom syndrome-Replication protein A and EXO1 were incubated at 37 °C for the indicated times. […] Gels were dried onto DEAE paper on top of Whatman filter paper (GE, Issaquah, WA, USA) and then analyzed in a BioRad Personal Molecular Imager FX phosphorimager. Band intensity was quantified using Image Lab software (Bio-Rad, Hercules, CA, USA). The fraction of DNA substrate digested was determined by measuring the amount of substrate remaining and normalizing to the total substrate in the negative control lane containing no protein.
Figure S2. […] (b) Plots showing quantitation of the experiments shown in a. […] (d) Plots showing quantitation of the experiments shown in c. […] (f) Plot showing quantitation of the experiment in e. […]

NC1=C(Br)C(=O)c2ncccc2C1=O [NSC-105808, 6-amino-7-bromoquinoline-5,8-dione]
DSB repair by single stand annealing (U2OS SSA reporter cells): significantly reduced
Effect on nuclease activity of EXO1 (EXO1): does not inhibit
